Among the data in PubChem BioAssay AID328 (DTP/NCI, 2004) are T/C values, retold here.

This test relates to BDF1 mice, P388 leukemia ip, median survival T/C. As to the kind of experiment: NCI In Vivo Anticancer Drug Screen. Data for tumor model P388 Leukemia (intraperitoneal) in B6D2F1 (BDF1) mice. The conditions noted are these: endpoint: median survival time, higher = longer survival. In outline:
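Vehicle-dosed animals serve as the reference; survival of compound-dosed, tumour-implanted mice is divided by it.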

The mark [1] stands for this setting: dose: 100.0 mg/kg/injection, schedule: Q04DX003 (ip), vehicle: saline with Tween-80.
Where [2] appears, read: dose: 400.0 mg/kg/injection, schedule: Q04DX003 (ip), vehicle: saline with Tween-80.
[3] abbreviates: dose: 25.0 mg/kg/injection, schedule: Q01DX009 (ip), vehicle: saline with Tween-80.
[4] abbreviates: dose: 50.0 mg/kg/injection, schedule: Q01DX009 (ip), vehicle: saline with Tween-80.
Setting [5] is: dose: 100.0 mg/kg/injection, schedule: Q01DX009 (ip), vehicle: saline with Tween-80.
[6] abbreviates: dose: 200.0 mg/kg/injection, schedule: Q04DX003 (ip), vehicle: saline with Tween-80.
The mark [7] stands for this setting: dose: 200.0 mg/kg/injection, schedule: Q01DX009 (ip), vehicle: saline with Tween-80.
Where [8] appears, read: dose: 100.0 mg/kg/injection, schedule: Q04DX003 (ip), vehicle: Klucel (hydroxypropylcellulose) (HPC).
Where [9] appears, read: dose: 200.0 mg/kg/injection, schedule: Q04DX003 (ip), vehicle: Klucel (hydroxypropylcellulose) (HPC).
Where [10] appears, read: dose: 400.0 mg/kg/injection, schedule: Q04DX003 (ip), vehicle: Klucel (hydroxypropylcellulose) (HPC).
The mark [11] stands for this setting: dose: 100.0 mg/kg/injection, schedule: Q01DX009 (ip), vehicle: Klucel (hydroxypropylcellulose) (HPC).
Where [12] appears, read: dose: 50.0 mg/kg/injection, schedule: Q01DX009 (ip), vehicle: Klucel (hydroxypropylcellulose) (HPC).
Where [13] appears, read: dose: 100.0 mg/kg/injection, schedule: Q04DX003 (ip), vehicle: saline.

“And” between values parts separate entries of the source, which are not always exact repeats. Equal entries are not always repeated. Toxic doses and inconclusive results are not listed.

As to `O/N=C(/C(=N/O)c1ccccc1)c1ccccc1.O/N=C(/C(=N/O)c1ccccc1)c1ccccc1.[Cl][Rh][Cl]`, the T/C reads like this: (dose: 25.0 mg/kg/injection, schedule: Q01DX009 (ip), vehicle: saline) 119 % of control; (dose: 50.0 mg/kg/injection, schedule: Q01DX009 (ip), vehicle: saline) 117 % of control; (dose: 100.0 mg/kg/injection, schedule: Q01DX009 (ip), vehicle: saline) 94 % of control; (dose: 200.0 mg/kg/injection, schedule: Q01DX009 (ip), vehicle: saline) 103 % of control; (dose: 400.0 mg/kg/injection, schedule: Q01DX009 (ip), vehicle: saline) 95 % of control.

Consider `Cc1nc2nc(N)nc(N)c2nc1Sc1ccc(Cl)cc1`, for which the T/C by setting is: under setting [1], 91 % of control; under setting [2], 88 % of control.

Take `NC1=NCC(CSc2ccc(Cl)c(Cl)c2)O1` (centres undefined): the T/C reads like this: (dose: 50.0 mg/kg/injection, schedule: Q04DX002 (ip), vehicle: saline + Tween-80 + alcohol) 95 % of control; (dose: 100.0 mg/kg/injection, schedule: Q04DX002 (ip), vehicle: saline + Tween-80 + alcohol) 101 % of control; (dose: 200.0 mg/kg/injection, schedule: Q04DX002 (ip), vehicle: saline + Tween-80 + alcohol) 95 % of control.

As for `COc1ccc(C(Cn2ccnc2)Sc2ccc(Cl)c(Cl)c2)cc1` (centres undefined), the T/C reads like this: (dose: 12.5 mg/kg/injection, schedule: Q01DX009 (ip), vehicle: saline with Tween-80) 105 % of control; under setting [3], 110 % of control; under setting [4], 120 % of control; under setting [5], 93 % of control and 119 % of control.

`CCCCC(CC)COP(OCC(CC)CCCC)OCC(CC)CCCC` (centres undefined): the T/C under setting [1] was 109 % of control, the T/C under setting [6] was 100 % of control and the T/C under setting [2] is 118 % of control.

In the case of `CS(=O)CC(O)(c1ccccc1)c1ccco1` (centres undefined), the T/C is 116 % of control under setting [4], 107 % of control under setting [5] and 106 % of control under setting [7].

On to `COc1cc(-c2ccc(N=Nc3c(O)c(C(=O)Nc4ccccc4OC)cc4ccccc34)c(OC)c2)ccc1N=Nc1c(O)c(C(=O)Nc2ccccc2OC)cc2ccccc12`, for which the T/C (dose: 100.0 mg/kg/injection, schedule: Q01DX005 (ip), vehicle: saline with Tween-80) is 97 % of control and the T/C (dose: 200.0 mg/kg/injection, schedule: Q01DX005 (ip), vehicle: saline with Tween-80) is 92 % of control.

Regarding `CCN(CC)C1=C(N(CC)CC)C(N(CC)CC)=C(N(CC)CC)C1=O.[C-]#[O+].[C-]#[O+].[C-]#[O+].[Fe]`, the T/C was 101 % of control under setting [8], 91 % of control under setting [9] and 115 % of control under setting [10].

Turning to `CN(C)C(=O)Nc1ccc(Cl)cc1`, the T/C (dose: 50.0 mg/kg/injection, schedule: Q01DX001 (ip), vehicle: saline with Tween-80) is 95 % of control; the T/C (dose: 100.0 mg/kg/injection, schedule: Q01DX001 (ip), vehicle: saline with Tween-80) is 100 % of control; the T/C (dose: 200.0 mg/kg/injection, schedule: Q01DX001 (ip), vehicle: saline with Tween-80) was 104 % of control.

With `C(=NCCc1ccccc1)c1ccccc1B1OB(c2ccccc2C=NCCc2ccccc2)OB(c2ccccc2C=NCCc2ccccc2)O1`, the T/C under setting [11] was 88 % of control; the T/C under setting [8] is 100 % of control; the T/C (dose: 200.0 mg/kg/injection, schedule: Q01DX009 (ip), vehicle: Klucel (hydroxypropylcellulose) (HPC)) is 105 % of control; the T/C (dose: 400.0 mg/kg/injection, schedule: Q01DX009 (ip), vehicle: Klucel (hydroxypropylcellulose) (HPC)) is 88 % of control; the T/C under setting [10] was 91 % of control.

On to `CCCC1CC[N-]CC1.CCCC1CC[N-]CC1.[Cl][Pt+2][Cl]`, for which the T/C by setting is: under setting [3], 122 % of control; (dose: 44.0 mg/kg/injection, schedule: Q04DX003 (ip), vehicle: saline) 96 % of control; under setting [12], 118 % of control; (dose: 66.0 mg/kg/injection, schedule: Q04DX003 (ip), vehicle: saline) 116 % of control; under setting [13], 112 % of control; (dose: 132.0 mg/kg/injection, schedule: Q04DX003 (ip), vehicle: saline with Tween-80) 100 % of control. The T/C was 95 % of control under setting [6] and 100 % of control (dose: 300.0 mg/kg/injection, schedule: Q04DX003 (ip), vehicle: Klucel (hydroxypropylcellulose) (HPC)).

Regarding `O=C1CC=Nc2ccc([N+](=O)[O-])cc21`, the T/C is 100 % of control under setting [8], 90 % of control under setting [9] and 95 % of control under setting [10].

For the compound `COc1cc2oc3c(c(=O)c2c(O)c1/C=C/C(C)C)C(C=C(C)C)Oc1cc(O)ccc1-3` (centres undefined), the T/C reads like this: (dose: 6.25 mg/kg/injection, schedule: Q01DX009 (ip), vehicle: Klucel (hydroxypropylcellulose) (HPC)) 94 % of control; (dose: 12.5 mg/kg/injection, schedule: Q01DX009 (ip), vehicle: Klucel (hydroxypropylcellulose) (HPC)) 110 % of control; (dose: 25.0 mg/kg/injection, schedule: Q01DX009 (ip), vehicle: Klucel (hydroxypropylcellulose) (HPC)) 108 % of control; under setting [12], 100 % of control; under setting [11], 107 % of control.

For the compound `C1CCC2[N-]CC3CCCCC3[N-]CC3CCCCC3[N-]CC3CCCCC3[N-]CC2C1.[Cu]` (centres undefined), the T/C is, setting by setting: (dose: 0.39 mg/kg/injection, schedule: Q01DX009 (ip), vehicle: saline) 107 % of control; (dose: 0.78 mg/kg/injection, schedule: Q01DX009 (ip), vehicle: saline) 113 % of control; (dose: 3.12 mg/kg/injection, schedule: Q01DX009 (ip), vehicle: saline) 166 % of control; (dose: 6.25 mg/kg/injection, schedule: Q01DX009 (ip), vehicle: saline) 96 % of control.

Take `CC(Br)C(=O)NC(CO)C(=O)O` (centres undefined): the T/C by setting is: under setting [13], 95 % of control; (dose: 200.0 mg/kg/injection, schedule: Q04DX003 (ip), vehicle: saline) 91 % of control; (dose: 400.0 mg/kg/injection, schedule: Q04DX003 (ip), vehicle: saline) 91 % of control.

In the case of `O=C(/C=C/c1cccc(O)c1)c1ccccc1`, the T/C is, setting by setting: under setting [4], 91 % of control; under setting [5], 99 % of control; under setting [7], 101 % of control.
